Test system: M. tuberculosis H37Rv growth with meropenem, percent inhibition
Assay: beta-lactam sensitization of Mtb H37Rv, H37Rv (AID 434955)

Compound | IC90
O=C1O/C(=C/c2ccccc2)N=C1c1ccccc1 | 28.3 µM
O=C1OC(c2ccco2)=N/C1=C\c1ccc(-c2cccc(C(F)(F)F)c2)o1 | 53.4 µM
CCCCNC(=O)c1onc(CSc2ccccc2C)c1C(=O)O | 50.6 µM
Nc1nc(Sc2ncccc2[N+](=O)[O-])n[nH]1 | 77.1 µM
CN1CCN(c2ccc(NC(=O)c3ccc(-c4cccc([N+](=O)[O-])c4)o3)cc2)CC1 | 6.71 µM
Cc1ccc(C)c(N2CCN(CC3CCCCC3)CC2)c1 | 52.4 µM
Cc1cc(C)cc(OCC(=O)NNC(=O)c2ccccn2)c1 | 16 µM
O=C(Nc1cccc(Cl)c1N1CCOCC1)c1ccc([N+](=O)[O-])o1 | 38.2 µM
COc1cc(NC(=O)c2ccccc2)c(OC)cc1NC(=O)CN1CCOCC1 | 69.2 µM
Nc1ccc(C(=O)O)c(O)c1 | 1.88 µM
O=C(COC(=O)c1ccc([N+](=O)[O-])s1)NCc1ccccc1 | 39.4 µM
CCOC(=O)c1c(C)[nH]c(C)c1C(=O)COC(=O)/C=C/c1ccc(OC(F)F)cc1 | 91.4 µM
CCCOc1ccccc1NC(=O)/C=C/C(N)=O | 27.7 µM
CCOC(=O)N1CCN(CC(=O)Nc2nnc(C(F)(F)F)s2)CC1 | 50.1 µM
COc1cc(NC(=O)c2cccc(Cl)c2)c(OC)cc1NC(=O)CN1CCCCC1 | 75.5 µM
CCc1cc2c(-c3ccccc3)cc(=O)oc2cc1OC(C)C(C)=O (stereo not given) | 48.5 µM
Cc1ccccc1OCC(=O)N/N=C/c1cccc(Oc2ccc([N+](=O)[O-])cc2[N+](=O)[O-])c1 | 5.4 µM
CCN(CC)C(=O)C1CCCN(c2ccc([N+](=O)[O-])cc2/C=N/NC(=O)c2cccc(O)c2)C1 (stereo not given) | 55.3 µM
CCCC(C)NC(=O)c1ccc(OCc2ccc(Cl)cc2)c(OC)c1 (stereo not given) | 11.6 µM
Cc1ccc(C(C)C)c(OCc2ccc(C(=O)N/N=C/c3ccc(C(=O)O)cc3)cc2)c1 | 49.5 µM
C/C(=N/NC(=O)c1ccccn1)c1ccncc1 | 23.1 µM
COC(=O)c1sc(-c2ccc(C(C)(C)C)cc2)cc1NC(=O)CCC(=O)O | 28.7 µM
COc1ccccc1-c1cc(C(=O)Nc2c(C)n(C)n(-c3ccccc3)c2=O)no1 | 19.5 µM

Compound | IC90
O=C(/C=C/c1ccccn1)c1cc(Br)ccc1O | 45.1 µM
CC(C)C1CC(CCNCc2ccc(N(C)C)cc2)(c2ccccc2)CCO1 (stereo not given) | 26.9 µM
Cc1onc(-c2ccccc2)c1C(=O)Nc1ccc(-c2nnc3n2CCCCC3)cc1 | 38.6 µM
Cc1cc(C)c(OCC(=O)Nc2nc3ccccc3[nH]2)c(C)c1 | 65.2 µM
CCCCN(CC)S(=O)(=O)c1ccc(C(=O)Nc2nnc(CSC)o2)cc1 | 31.7 µM
CCOc1ccc2nc(SC3CC(=O)N(c4cccc(OC)c4)C3=O)sc2c1 (stereo not given) | 25.7 µM
Cc1cccc(N2CCN(CC3CCCCC3)CC2)c1C | 53.2 µM
COc1cccc(/C=N/NC(=O)c2cnccn2)c1O | 13.9 µM
CC1CCN(C(=S)NC(=O)c2ccccc2)CC1 | 13.6 µM
C/C(=N\OCC(=O)Nc1nc2ccccc2s1)c1ccccc1 | 35.6 µM
O=C(CC12CC3CC(CC(C3)C1)C2)NCc1ccc(F)cc1 | 10.4 µM
Cc1cccc(CSc2nnc(C)c(=O)n2N)c1 | 9.9 µM
CN(C)S(=O)(=O)c1ccc(C(=O)/C=C/c2cccnc2)cc1 | 12.1 µM
O=C(OCn1nnc2ccccc2c1=O)c1ccc2c(=O)n3c(nc2c1)CCC3 | 26.1 µM
CCC(C)NCCOCCOc1ccc(Cl)c2ccccc12 (stereo not given) | 50.7 µM
COc1ccc(-c2cc(C(F)F)nc(-n3nc(C)cc3C)n2)cc1 | 54.1 µM
O=C(CSC1CS(=O)(=O)c2cc([N+](=O)[O-])ccc21)NNC(=O)c1ccccc1 (stereo not given) | 13.3 µM
Cc1nnc(SCC2=C(C(=O)O)N3C(=O)C(NC(=O)COc4ccc(F)cc4)C3SC2)s1 (stereo not given) | 9.33 µM
COc1ccc(OC)c(-c2cc(C(=O)Nc3c(C)n(C)n(-c4ccccc4)c3=O)no2)c1 | 49.5 µM
O=C(c1ccc(-c2ccc(Cl)cc2)o1)N1CCN(S(=O)(=O)c2cccs2)CC1 | 99.6 µM
Cc1ccc(C(=O)N/C(=C\c2ccc(-c3ccc(Cl)cc3)o2)C(=O)NCCCN(C)C)cc1 | 23.7 µM
O=C1CS/C(=N/N=C2C3CC4CC(C3)CC2C4)N1 | 13.8 µM

Reference: PubChem BioAssay AID434955 (Southern Research Specialized Biocontainment Screening …, 2010)
